viability, T/C and IC50 data for 6 compounds are collected here from PubChem BioAssay AID1918993 (Molecular Pharmacology Branch, DTP, NCI, 2023).

“And” between values parts separate entries of the source, which are not always exact repeats. Equal values may be shown once. Where only a bound is given, the exact number is not on record here.

The term viability, T/C denotes the result in the treated group divided by that in the control group, in per cent. In general, IC50 refers to the midpoint of a concentration-inhibition curve.

The test system of the assay is 233499-124-R-J3-PDC complex spheroid growth. The assay can be described thus: Anticancer human tumor 233499-124-R-J3-PDC patient-derived colon adenocarcinoma cell line growth inhibition [AhR]. The note with it: for viability, T/C: stronger effect = lower value. A digest of the protocol: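 Complex tumor spheroids co-cultured with HUVEC and human MSC stroma; AhR antagonists tested in combination with standard-of-care and investigational agents. Top concentration at or near clinical Cmax (else 10 microM), half-log dilutions; growth expressed as percent test/control.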

Setting [1] is: curve of first compound, second compound 0.1 µM.
Setting [2] is: curve of first compound, second compound 0.316 µM.
Where [3] appears, read: curve of first compound, second compound 1 µM.
The mark [4] stands for this setting: curve of first compound, second compound 3.16 µM.
Where [5] appears, read: curve of first compound, second compound 10 µM.
The mark [6] stands for this setting: second compound 0.1 µM, first compound 0.0316 µM.
The mark [7] stands for this setting: second compound 0.1 µM, first compound 0.1 µM.
Setting [8] is: second compound 0.1 µM, first compound 0.316 µM.
The mark [9] stands for this setting: second compound 0.1 µM, first compound 1 µM.
[10] abbreviates: second compound 0.1 µM, first compound 3.16 µM.
The mark [11] stands for this setting: second compound 0.1 µM, first compound 10 µM.
[12] abbreviates: second compound 0.316 µM, first compound 0.0316 µM.
The mark [13] stands for this setting: second compound 0.316 µM, first compound 0.1 µM.
The mark [14] stands for this setting: second compound 0.316 µM, first compound 0.316 µM.
[15] abbreviates: second compound 0.316 µM, first compound 1 µM.
[16] abbreviates: second compound 0.316 µM, first compound 3.16 µM.
Where [17] appears, read: second compound 0.316 µM, first compound 10 µM.
Setting [18] is: second compound 1 µM, first compound 0.0316 µM.
Where [19] appears, read: second compound 1 µM, first compound 0.1 µM.
[20] abbreviates: second compound 1 µM, first compound 0.316 µM.
[21] abbreviates: second compound 1 µM, first compound 1 µM.
The mark [22] stands for this setting: second compound 1 µM, first compound 3.16 µM.
Setting [23] is: second compound 1 µM, first compound 10 µM.
[24] abbreviates: second compound 3.16 µM, first compound 0.0316 µM.
Setting [25] is: second compound 3.16 µM, first compound 0.1 µM.
Where [26] appears, read: second compound 3.16 µM, first compound 0.316 µM.
Where [27] appears, read: second compound 3.16 µM, first compound 1 µM.
[28] abbreviates: second compound 3.16 µM, first compound 3.16 µM.
[29] abbreviates: second compound 3.16 µM, first compound 10 µM.
Setting [30] is: second compound 10 µM, first compound 0.0316 µM.
The mark [31] stands for this setting: second compound 10 µM, first compound 0.1 µM.
Where [32] appears, read: second compound 10 µM, first compound 0.316 µM.
Where [33] appears, read: second compound 10 µM, first compound 1 µM.
Where [34] appears, read: second compound 10 µM, first compound 3.16 µM.
[35] abbreviates: second compound 10 µM, first compound 10 µM.
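Also: spheroids exposed to agents for seven days before reading.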

As to `NS(=O)(=O)OCC1CC(n2ccc3c(NC4CCc5ccccc54)ncnc32)CC1O` (stereo unspecified), the viability, T/C by setting is: (compound 0.0316 µM) 101% (2×) and 105%; (compound 0.1 µM) 107% and 91.4% and 77.7%; (compound 0.316 µM) 98.2% and 66% and 47.5%; (compound 1 µM) 18.1% and 25.5% and 14%; (compound 3.16 µM) 5.89% and 5.66% and 5.16%; (compound 10 µM) 3% and 4.4% and 2.68%. Further, under “curve of compound”, the IC50 is 0.632 µM and 0.486 µM and 0.266 µM.

For the compound `CCN(c1cc(-c2ccc(CN3CCOCC3)cc2)cc(C(=O)NCc2c(C)cc(C)[nH]c2=O)c1C)C1CCOCC1` + CC(CO)NC(=O)c1cc(-c2ccc(Cl)cc2)nn(-c2cnn(C)c2)c1=O, the IC50 under setting [1] was above 3 µM; the 50% inhibitory concentration (IC50) under setting [2] is above 3 µM; the IC50 under setting [3] was above 3 µM; the IC50 under setting [4] is above 3 µM; the half-maximal inhibitory concentration (IC50) under setting [5] was above 3 µM. Besides, the viability, T/C (second compound 0.1 µM, first compound 0.00949 µM) was 100%; the viability, T/C (second compound 0.1 µM, first compound 0.03 µM) was 86.8%; the viability, T/C (second compound 0.1 µM, first compound 0.0949 µM) was 88.2%; the viability, T/C (second compound 0.1 µM, first compound 0.3 µM) is 82.9%; the viability, T/C (second compound 0.1 µM, first compound 0.949 µM) is 93.5%; the viability, T/C (second compound 0.1 µM, first compound 3 µM) was 94.3%. Further, the viability, T/C is 103% (second compound 0.316 µM, first compound 0.00949 µM); 98.6% (second compound 0.316 µM, first compound 0.03 µM); 94.9% (second compound 0.316 µM, first compound 0.0949 µM); 85.6% (second compound 0.316 µM, first compound 0.3 µM); 99.9% (second compound 0.316 µM, first compound 0.949 µM); 83.8% (second compound 0.316 µM, first compound 3 µM). The viability, T/C was 95.6% (second compound 1 µM, first compound 0.00949 µM); 96.1% (second compound 1 µM, first compound 0.03 µM); 91% (second compound 1 µM, first compound 0.0949 µM); 95.4% (second compound 1 µM, first compound 0.3 µM); 88.4% (second compound 1 µM, first compound 0.949 µM); 90.2% (second compound 1 µM, first compound 3 µM). The viability, T/C reads like this: (second compound 3.16 µM, first compound 0.00949 µM) 88%; (second compound 3.16 µM, first compound 0.03 µM) 82%; (second compound 3.16 µM, first compound 0.0949 µM) 85.6%; (second compound 3.16 µM, first compound 0.3 µM) 91.9%; (second compound 3.16 µM, first compound 0.949 µM) 98.7%; (second compound 3.16 µM, first compound 3 µM) 86.6%. In addition, the viability, T/C (second compound 10 µM, first compound 0.00949 µM) was 80.9%; the viability, T/C (second compound 10 µM, first compound 0.03 µM) is 77.2%; the viability, T/C (second compound 10 µM, first compound 0.0949 µM) was 79.7%; the viability, T/C (second compound 10 µM, first compound 0.3 µM) is 82.5%; the viability, T/C (second compound 10 µM, first compound 0.949 µM) is 73.5%; the viability, T/C (second compound 10 µM, first compound 3 µM) was 83.1%.

For the compound `O=C(c1cc(Cc2n[nH]c(=O)c3ccccc23)ccc1F)N1CCN(C(=O)C2CC2)CC1` + Cc1ccccc1N=Nc1ccc(NC(=O)c2ccnn2C)c(C)c1, the IC50 is, setting by setting: under setting [1], above 10 µM; under setting [2], above 10 µM; under setting [3], above 10 µM; under setting [4], above 10 µM; under setting [5], above 10 µM. The viability, T/C by setting is: under setting [6], 106%; under setting [7], 109%; under setting [8], 89%; under setting [9], 117%; under setting [10], 114%; under setting [11], 112%. For the same compound, the viability, T/C runs as follows: under setting [12], 106%; under setting [13], 99.9%; under setting [14], 89.6%; under setting [15], 93.5%; under setting [16], 92.7%; under setting [17], 106%. For the same compound, the viability, T/C under setting [18] was 99.7%; the viability, T/C under setting [19] is 106%; the viability, T/C under setting [20] was 98.1%; the viability, T/C under setting [21] was 106%; the viability, T/C under setting [22] is 110%; the viability, T/C under setting [23] was 111%. Besides, the viability, T/C was 100% under setting [24]; 106% under setting [25]; 92.8% under setting [26]; 100% under setting [27]; 89.3% under setting [28]; 92.8% under setting [29]. In addition, the viability, T/C under setting [30] was 106%; the viability, T/C under setting [31] is 107%; the viability, T/C under setting [32] was 110%; the viability, T/C under setting [33] was 111%; the viability, T/C under setting [34] is 98.9%; the viability, T/C under setting [35] is 101%.

On to `O=C(c1cc(Cc2n[nH]c(=O)c3ccccc23)ccc1F)N1CCN(C(=O)C2CC2)CC1`, for which the viability, T/C is, setting by setting: (compound 0.0316 µM) 103% and 99.9% and 91.7%; (compound 0.1 µM) 97.6% and 103% and 104%; (compound 0.316 µM) 97.3% and 100% and 107%; (compound 1 µM) 108% and 113% and 102%; (compound 3.16 µM) 108% and 92.6% and 99.9%; (compound 10 µM) 93.2% and 85.1% and 76.2%. The IC50 (curve of compound) is above 10 µM.

On to `COc1cc(Nc2ncc3c(n2)-c2ccc(Cl)cc2C(c2c(F)cccc2OC)=NC3)ccc1C(=O)O` + CC(CO)NC(=O)c1cc(-c2ccc(Cl)cc2)nn(-c2cnn(C)c2)c1=O, for which the IC50 by setting is: under setting [1], above 10 µM; under setting [2], above 10 µM; under setting [3], above 10 µM; under setting [4], above 10 µM; under setting [5], above 10 µM. Also, the viability, T/C was 75.4% under setting [6]; 74.5% under setting [7]; 81% under setting [8]; 91.4% under setting [9]; 84.6% under setting [10]; 82.9% under setting [11]. Moreover, the viability, T/C reads like this: under setting [12], 75.6%; under setting [13], 73.6%; under setting [14], 86.3%; under setting [15], 77.2%; under setting [16], 62.8%; under setting [17], 94%. In addition, the viability, T/C is, setting by setting: under setting [18], 78.7%; under setting [19], 76.9%; under setting [20], 96%; under setting [21], 72.5%; under setting [22], 87.7%; under setting [23], 74%. Also, the viability, T/C under setting [24] is 57.9%; the viability, T/C under setting [25] was 67.4%; the viability, T/C under setting [26] was 86.3%; the viability, T/C under setting [27] is 89.1%; the viability, T/C under setting [28] is 84.7%; the viability, T/C under setting [29] is 84.9%. In addition, the viability, T/C was 58.8% under setting [30]; 62.8% under setting [31]; 73.8% under setting [32]; 65.4% under setting [33]; 57.9% under setting [34]; 59.2% under setting [35].

Consider `COc1cc(Nc2ncc3c(n2)-c2ccc(Cl)cc2C(c2c(F)cccc2OC)=NC3)ccc1C(=O)O`, for which the viability, T/C is 86.8% and 75.8% and 70.1% (compound 0.0316 µM); 82.6% and 65.5% and 75.6% (compound 0.1 µM); 80.1% and 102% and 79.4% (compound 0.316 µM); 84.1% and 87.8% and 83.3% (compound 1 µM); 97.7% and 89.4% and 91.1% (compound 3.16 µM); 82.9% and 90.2% and 86% (compound 10 µM). Further, the IC50 (curve of compound) was above 10 µM.
